# Read-outs that look alike come from different tables or passages of the source.
# Experiments:
# [1] = molecular target: T1, human OATP1B1 transporter (Homo sapiens, UniProt Q9Y6L6); assay: Uptake into OATP1B1 and empty vector transfected HEK293 cells; type: in vitro ADME; details: for Uptake rate Mean: 2 min; for Uptake ratio: OATP1B1 vs control
# T1 construct: expressed in transfected cells; host or cells: HEK293 (transient transfection)
# T1 sequence (Q9Y6L6 1-691): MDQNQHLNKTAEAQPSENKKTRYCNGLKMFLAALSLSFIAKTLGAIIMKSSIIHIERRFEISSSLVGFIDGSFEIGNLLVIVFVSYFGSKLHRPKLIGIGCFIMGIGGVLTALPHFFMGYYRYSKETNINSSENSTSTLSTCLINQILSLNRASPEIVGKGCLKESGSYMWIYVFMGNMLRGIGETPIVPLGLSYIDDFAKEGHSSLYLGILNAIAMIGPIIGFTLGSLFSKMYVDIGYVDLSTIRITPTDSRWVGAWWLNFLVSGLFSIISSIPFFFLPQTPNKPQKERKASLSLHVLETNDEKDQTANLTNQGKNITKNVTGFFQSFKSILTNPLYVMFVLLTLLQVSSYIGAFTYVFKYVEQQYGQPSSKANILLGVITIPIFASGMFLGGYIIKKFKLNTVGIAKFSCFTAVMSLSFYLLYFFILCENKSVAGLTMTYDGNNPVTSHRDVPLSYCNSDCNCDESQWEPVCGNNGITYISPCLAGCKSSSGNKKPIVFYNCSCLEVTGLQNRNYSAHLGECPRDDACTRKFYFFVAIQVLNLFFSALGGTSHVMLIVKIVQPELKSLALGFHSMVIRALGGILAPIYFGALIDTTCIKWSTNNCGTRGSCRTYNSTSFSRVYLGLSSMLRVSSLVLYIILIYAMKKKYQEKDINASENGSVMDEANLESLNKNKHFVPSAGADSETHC
# Protocol: Test compound (at 1 and 10 μM) was incubated with both SLC transporter-expressing HEK293 cells and control (empty vector) HEK293 cells for 2 min.
# [2] = system: SXFS HT-1080; assay: 2D monolayer CellTiter-Blue viability, soft tissue sarcoma HT-1080; type: cell-based; details: 72 h
# Protocol: Seventeen compounds, including mebendazole (Batch no. MKCC1885, Sigma-Aldrich, 100% pure), were tested in vitro across a panel of 8 selected neuroblastoma (NBXF) and 13 selected sarcoma (SXF) derived cell lines by using a 2D monolayer assay. Compounds were tested at […] in half-log increments up to 100 μM and cells were treated for a period of 72 hours. Efficacy of compounds was assessed using CellTiter-Blue® Cell Viability Assay. Anti-tumor activity is expressed as absolute and relative IC50 and IC70 values, calculated by non-linear regression analysis.
# [3] = system: SXFS U-2197; assay: 2D monolayer CellTiter-Blue viability, soft tissue sarcoma U-2197; type: cell-based; details: 72 h
# Protocol: Seventeen compounds, including mebendazole (Batch no. […] Efficacy of compounds was assessed using CellTiter-Blue® Cell Viability Assay. Anti-tumor activity is expressed as absolute and relative IC50 and IC70 values, calculated by non-linear regression analysis.
# [4] = system: SK-OV-3; assay: 2D monolayer CellTiter-Blue viability, ovarian cancer SK-OV-3; type: cell-based; details: for IC50: Homo sapiens; for Test/Control (%) at Drug Concentration: 72 h
# Protocol: (§1) Mebendazole was tested in vitro across a panel of 12 tumor cell lines of ovarian and renal cancer by using a 2D monolayer assay. […] OVXF 899L and RXF 486L are P-gp expressing, multidrug resistant cell lines.
# (§2) Anti-tumor activity is expressed as absolute and relative IC50/70 values, calculated by 4-parameter non-linear curve fit.
# [5] = system: RXF 486L; assay: 2D monolayer CellTiter-Blue viability, renal cancer RXF 486L (P-gp expressing, multidrug resistant); type: cell-based; details: for Test/Control (%) at Drug Concentration: 72 h; for IC50: RXF 486L
# Protocol: as §1, §2
# [6] = system: 786-O; assay: 2D monolayer CellTiter-Blue viability, renal cancer 786-O; type: cell-based; details: for IC50: Homo sapiens, 786-0, 72 h
# Protocol: as §1, §2
# [7] = in vitro; details: human, cryopreserved hepatocytes (suspension)
# Protocol: The amount of test compound remaining at each time point was analysed by LC-MS/MS. Appropriate control compounds were also incubated.
# The final incubation volume was 500 μL. Appropriate control compounds were included, alongside appropriate vehicle control.
# The reactions were stopped by transferring 50 μL of incubate to 100 μL acetonitrile containing internal standard at the appropriate time points (0, 5, 10, 20, 40 and 60 min). The termination plates were centrifuged at 2500 rpm at 4° C. for 30 min to precipitate the protein.
smiles,measurement,setting,value
"COC(=O)Nc1nc2ccc(C(=O)c3ccccc3)cc2[nH]1 [Mebendazole, methyl N-(6-benzoyl-1H-benzimidazol-2-yl)carbamate]",Uptake rate Mean,"[1]; 1 μM, OATP1B1 HEK293 cells",42.5 pmol/mg
same,Uptake ratio,[1]; 1 μM,0.9
same,Uptake rate Mean,"[1]; 1 μM, control (empty vector) HEK293 cells",49.0 pmol/mg
same,Uptake rate Mean,"[1]; 10 μM, OATP1B1 HEK293 cells",426 pmol/mg
same,Uptake ratio,[1]; 10 μM,0.9
same,Uptake rate Mean,"[1]; 10 μM, control (empty vector) HEK293 cells",461 pmol/mg
same,substrate of the human OATP1B1 transporter,[1]; 1 and 10 μM,not a substrate
same,Test/Control (%) at Drug Concentration,"[2]; HT-1080, 1.0E+00 μM",7%
same,Test/Control (%) at Drug Concentration,"[2]; HT-1080, 1.0E+01 μM",4%
same,Test/Control (%) at Drug Concentration,"[2]; HT-1080, 1.0E+02 μM",1%
same,Test/Control (%) at Drug Concentration,"[2]; HT-1080, 1.0E−01 μM",79%
same,Test/Control (%) at Drug Concentration,"[2]; HT-1080, 1.0E−02 μM",89%
same,Test/Control (%) at Drug Concentration,"[2]; HT-1080, 3.2E+00 μM",4%
same,Test/Control (%) at Drug Concentration,"[2]; HT-1080, 3.2E+01 μM",3%
same,Test/Control (%) at Drug Concentration,"[2]; HT-1080, 3.2E−01 μM",35%
same,Test/Control (%) at Drug Concentration,"[2]; HT-1080, 3.2E−02 μM",79%
same,Test/Control (%) at Drug Concentration,"[2]; HT-1080, 3.2E−03 μM",90%
same,Test/Control (%) at Drug Concentration,"[3]; U-2197, 1.0E+00 μM",42%
same,Test/Control (%) at Drug Concentration,"[3]; U-2197, 1.0E+01 μM",37%
same,Test/Control (%) at Drug Concentration,"[3]; U-2197, 1.0E+02 μM",18%
same,Test/Control (%) at Drug Concentration,"[3]; U-2197, 1.0E−01 μM",91%
same,Test/Control (%) at Drug Concentration,"[3]; U-2197, 1.0E−02 μM",93%
same,Test/Control (%) at Drug Concentration,"[3]; U-2197, 3.2E+00 μM",44%
same,Test/Control (%) at Drug Concentration,"[3]; U-2197, 3.2E+01 μM",36%
same,Test/Control (%) at Drug Concentration,"[3]; U-2197, 3.2E−01 μM",79%
same,Test/Control (%) at Drug Concentration,"[3]; U-2197, 3.2E−02 μM",93%
same,Test/Control (%) at Drug Concentration,"[3]; U-2197, 3.2E−03 μM",93%
same,IC50,"[4]; SK-OV-3, 72 h, read-out: Abs. IC50",1200 nM
same,IC50,"[4]; SK-OV-3, 72 h, read-out: Rel. IC50",476 nM
same,Test/Control (%) at Drug Concentration,"[4]; SK-OV-3, 1.0E+00 μM",52%
same,Test/Control (%) at Drug Concentration,"[4]; SK-OV-3, 1.0E−01 μM",99%
same,Test/Control (%) at Drug Concentration,"[4]; SK-OV-3, 1.0E−02 μM",98%
same,Test/Control (%) at Drug Concentration,"[4]; SK-OV-3, 1.0E−03 μM",100%
same,Test/Control (%) at Drug Concentration,"[4]; SK-OV-3, 1.0E−04 μM",94%
same,Test/Control (%) at Drug Concentration,"[4]; SK-OV-3, 3.2E+00 μM",45%
same,Test/Control (%) at Drug Concentration,"[4]; SK-OV-3, 3.2E−01 μM",84%
same,Test/Control (%) at Drug Concentration,"[4]; SK-OV-3, 3.2E−02 μM",102%
same,Test/Control (%) at Drug Concentration,"[4]; SK-OV-3, 3.2E−03 μM",101%
same,Test/Control (%) at Drug Concentration,"[4]; SK-OV-3, 3.2E−04 μM",104%
same,Abs. IC70,"[4]; SK-OV-3, 72 h",>3.200 µM
same,Rel. IC70,"[4]; SK-OV-3, 72 h",0.679 µM
same,Bot. (%),"[4]; SK-OV-3, 72 h, curve fit",44%
same,Top (%),"[4]; SK-OV-3, 72 h, curve fit",100%
same,Test/Control (%) at Drug Concentration,"[5]; RXF 486, 1.0E+00 μM",24%
same,Test/Control (%) at Drug Concentration,"[5]; RXF 486, 1.0E−01 μM",88%
same,Test/Control (%) at Drug Concentration,"[5]; RXF 486, 1.0E−02 μM",101%
same,Test/Control (%) at Drug Concentration,"[5]; RXF 486, 1.0E−03 μM",97%
same,Test/Control (%) at Drug Concentration,"[5]; RXF 486, 1.0E−04 μM",92%
same,Test/Control (%) at Drug Concentration,"[5]; RXF 486, 3.2E+00 μM",17%
same,Test/Control (%) at Drug Concentration,"[5]; RXF 486, 3.2E−01 μM",45%
same,Test/Control (%) at Drug Concentration,"[5]; RXF 486, 3.2E−02 μM",92%
same,Test/Control (%) at Drug Concentration,"[5]; RXF 486, 3.2E−03 μM",94%
same,Test/Control (%) at Drug Concentration,"[5]; RXF 486, 3.2E−04 μM",96%
same,Abs. IC70,"[5]; RXF 486, 72 h",0.545 µM
same,Rel. IC70,"[5]; RXF 486, 72 h",0.362 µM
same,Bot. (%),"[5]; RXF 486, 72 h, curve fit",18%
same,Top (%),"[5]; RXF 486, 72 h, curve fit",95%
same,IC50,"[5]; RXF 486, 72 h, read-out: Abs. IC50",292 nM
same,IC50,"[5]; RXF 486, 72 h, read-out: Rel. IC50",248 nM
same,Test/Control (%) at Drug Concentration,"[6]; 1.0E+00 μM, 72 h",20%
same,Test/Control (%) at Drug Concentration,"[6]; 1.0E−01 μM, 72 h",95%
same,Test/Control (%) at Drug Concentration,"[6]; 1.0E−02 μM, 72 h",87%
same,Test/Control (%) at Drug Concentration,"[6]; 1.0E−03 μM, 72 h",98%
same,Test/Control (%) at Drug Concentration,"[6]; 1.0E−04 μM, 72 h",107%
same,Test/Control (%) at Drug Concentration,"[6]; 3.2E+00 μM, 72 h",9%
same,Test/Control (%) at Drug Concentration,"[6]; 3.2E−01 μM, 72 h",69%
same,Test/Control (%) at Drug Concentration,"[6]; 3.2E−02 μM, 72 h",88%
same,Test/Control (%) at Drug Concentration,"[6]; 3.2E−03 μM, 72 h",97%
same,Test/Control (%) at Drug Concentration,"[6]; 3.2E−04 μM, 72 h",87%
same,Abs. IC70,[6]; 72 h,0.712 µM
same,Rel. IC70,[6]; 72 h,0.640 µM
same,Bot. (%),"[6]; 72 h, curve fit",9%
same,Top (%),"[6]; 72 h, curve fit",94%
same,IC50,[6]; read-out: Abs. IC50,470 nM
same,IC50,[6]; read-out: Rel. IC50,457 nM
same,half-life at 1 μM,[7],91.4 min
same,hepatocyte CLint at 1 µM,[7],15.2 µL/min/1e6 cells
same,half-life at 1 μM,[7]; with fluvoxamine 10 μM,1840 min
same,hepatocyte CLint at 1 µM,[7]; with fluvoxamine 10 μM,0.751 µL/min/1e6 cells
same,half-life at 1 μM,[7]; with fluvoxamine 300 μM,225 min
same,hepatocyte CLint at 1 µM,[7]; with fluvoxamine 300 μM,6.16 ± 1.7 µL/min/1e6 cells
same,half-life at 1 μM,[7]; with mexiletine 10 μM,136 min
same,half-life at 1 μM,[7]; with mexiletine 30 μM,713 min
same,half-life at 1 μM,[7]; with mexiletine 100 μM,317 min
same,half-life at 1 μM,[7]; with mexiletine 300 μM,666 min
same,hepatocyte CLint at 1 µM,[7]; with mexiletine 300 μM,2.08 ± 1.8 µL/min/1e6 cells

# — US20220125765A1, “PHARMACEUTICAL COMBINATIONS COMPRISING MEBENDAZOLE AND A STRONG OR MODERATE CYP1A2 INHIBITOR” (ZEPHAPHARM LTD, priority 2019, published 2022)
